Reference: article PMC12656566, “Toxicokinetic Characterization of MDM Hydantoin via Stable Metabolite DMH: Population Modeling for Predicting Dermal Formaldehyde Formation” (Toxics, 2025)
Like-named read-outs stand apart in the source and are kept apart here.

What was measured:
[1] = Stability of MDMH and DMH in rat plasma and processed samples; type: in vitro ADME; conditions: n = 5; for Processed sample stability: autosampler at 4 °C for 24 h; for Short-term stability / Freeze–thaw stability / Long-term stability: rat plasma; for Short-term stability: room temperature (25 °C) for 4 h; for Freeze–thaw stability: three freeze–thaw cycles; for Long-term stability: −20 °C for 4 weeks
Experimental: Short-term stability of MDMH and DMH in rat plasma was evaluated at room temperature for 4 h. Long-term stability was assessed following storage at −20 °C for 4 weeks. Freeze–thaw stability was determined after three freeze–thaw cycles. Additionally, processed sample stability was evaluated in the autosampler at 4 °C for 24 h. Stability was considered acceptable when the mean deviation from theoretical concentrations was within ±15%.
Stability studies were conducted using five replicates of low and high quality control samples under various analytical conditions, with results shown in Table 3. Short-term stability was evaluated at room temperature (25 °C) for 4 h, showing mean recoveries within acceptable limits for both analytes. Long-term stability was assessed following storage at −20 °C for 4 weeks, with recoveries remaining within ±15% of theoretical concentrations. Freeze–thaw stability was evaluated after three freeze–thaw cycles. Processed sample stability in the autosampler at 4 °C for 24 h was also within acceptable ranges.

[2] = Population toxicokinetic modeling of MDMH and DMH plasma data (IV and TD); type: in vivo; conditions: population estimate, rats; for Vd / clearance: male, Sprague-Dawley, rat, plasma, other: intravenous and transdermal data pooled
Experimental: POP-TK modeling was performed to develop a compartment model describing the disposition of MDMH and DMH following different administration routes. Plasma concentration data from all studies were combined for model development.
The compartment model was designed to fit the absorption phase following TD application, disposition kinetics of MDMH and DMH following IV injection. The disposition phase of MDMH was described with a one-compartment model.
For transdermal application, MDMH applied to the skin undergoes simultaneous absorption and metabolic conversion to DMH and formaldehyde. This process was described by a first-order rate constant (ka,met) representing the combined absorption-metabolism kinetics. The parameter Fa,met represents the fraction of applied dose that penetrates the skin and undergoes metabolic conversion, accounting for incomplete absorption.
DMH formed in the skin compartment subsequently undergoes absorption into systemic circulation. This absorption was modeled using a first-order rate constant (ka,DMH) with three transit compartments to describe the delayed appearance of DMH in plasma.
The disposition of MDMH and DMH was assessed using a linear model with a central and one, two, or three peripheral compartments. The model incorporated both skin metabolism and systemic metabolism of MDMH to DMH. Systemic metabolism was described by the […], representing the fraction of eliminated MDMH that is converted to DMH in the central compartment. Molecular weight correction was applied to account for stoichiometric conversion relationships.
The final disposition and elimination compartment model was determined to use one central compartment for MDMH and one central and one peripheral compartment for DMH based on the objective function.
The differential equations for the amounts of MDMH in the central (XCentral,MDMH) compartments and DMH in the central (XCentral,DMH) and peripheral (XPeripheral,DMH) compartments were:(7) dXCentral,MDMH/dt=−CLMDMH·CCentral,MDMH (8) dXCentral,DMH/dt=−CLDMH·CCentral,DMH−CLDDMH·CCentral,DMH+CLDDMH·CPeripheral,DMH+ka,DMH·XTransit3,DMH+(MWDMH/MWMDMH)·CLMDMH·CCentral,MDMH (9) dXPeripheral,DMH/dt=+CLDDMH·CCentral,DMH−CLDDMH·CPeripheral,DMH
CCentral,MDMH and CCentral,DMH represent MDMH and DMH plasma concentrations in respective compartments and CPeripheral,DMH represent DMH concentration in peripheral compartment. CLMDMH and CLDMH were systemic clearance of MDMH and DMH and CLDDMH was distribution clearance.
The plasma concentrations of MDMH and DMH were simultaneously modeled and predicted using POP-TK modeling with the stochastic approximation expectation maximization (SAEM) algorithm in the parallelized Monolix® 2023R1 (Lixoft, Antony, Paris, France) and Berkeley Madonna version 8.3.11 (University of California at Berkeley, Berkeley, CA, USA). An importance sampling SAEM was used for population parameter estimation to describe the between-subject variability (BSV) for each parameter estimate.

Processed sample stability ([1]; High QC) | Processed sample stability ([1]; Low QC) | Short-term stability ([1]; High QC) | Short-term stability ([1]; Low QC) | Freeze–thaw stability ([1]; High QC) | Freeze–thaw stability ([1]; Low QC) | Long-term stability ([1]; High QC) | Long-term stability ([1]; Low QC) | SMILES | Vd ([2]; Mean (BSV), read-out: Central volume of distribution for DMH (Vc,DMH)) | clearance ([2]; Mean (BSV), read-out: Clearance for DMH (CLDMH) (converted)) | Absorption rate constant for DMH into the central compartment from skin (ka,DMH) ([2]; Mean (BSV)) | Distribution clearance for DMH (CLDDMH) ([2]; Mean (BSV)) | Peripheral volume of distribution for DMH (Vp,DMH) ([2]; Mean (BSV)) | absorption rate constant for DMH (ka,DMH) [2] | Vd ([2]; Mean (BSV), read-out: Central volume of distribution for MDMH (Vc,MDMH)) | clearance ([2]; Mean (BSV), read-out: Clearance for MDMH (CLMDMH) (converted)) | Absorption-metabolism rate constant for MDMH in skin (Ka,met) ([2]; Mean (BSV)) | combined absorption-metabolism rate constant (ka,met) [2]
113.2 ± 1.5% | 90.9 ± 6.9% | 101.0 ± 1.9% | 102.0 ± 1.4% | 93.2 ± 5.8% | 89.3 ± 3.8% | 112.0 ± 3.2% | 106.2 ± 4.3% | CC1(C)NC(=O)NC1=O [DMH, 5,5-dimethylhydantoin] | 0.32 L | 3.17 mL/min | 8.03 (38.33) 1/h | 5.73 (71.8) L/h | 0.43 (35.86) L | 8.03 h⁻¹ | – | – | – | –
112.0 ± 3.5% | 98.9 ± 4.7% | 99.7 ± 1.3% | 102.6 ± 1.5% | 94.0 ± 1.8% | 90.1 ± 4.1% | 109.0 ± 3.9% | 110.4 ± 1.1% | CC1(C)C(=O)NC(=O)N1CO [MDMH, 1-(Hydroxymethyl)-5,5-dimethylhydantoin] | – | – | – | – | – | – | 1.18 L | 2460 mL/min | 0.31 (6.44) 1/h | 0.31 h⁻¹
